From patent publication US10253081B2, “Glucagon analogues” (Zealand Pharma A/S, priority 2012, dated 2019) come the findings set out here.

Test [1] in a line: Oral glucose tolerance test (OGTT). The following applies: blood glucose AUC 0-120 min, 10 nmol/kg s.c. 4 h before oral glucose 2 g/kg. It is filed as in vivo, C57BL/6J mice. An outline of the steps: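 Male C57BL/6J mice (n=7) were fasted for 10 h and given peptide at 10 nmol/kg s.c. in phosphate-buffered saline 4 h before an oral glucose bolus of 2 g/kg; controls got vehicle. Tail-blood glucose was read by glucometer up to 120 min, and AUC was computed by the trapezoidal rule without baseline correction.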

Test [2] concerns the target T1, endogenous GLP-1 receptors (Mus musculus, UniProt O35659).
T1 construct: Agonistic activity of the test compounds on endogenous GLP-1 receptors; endogenous in cells
T1 sequence (O35659 22-463): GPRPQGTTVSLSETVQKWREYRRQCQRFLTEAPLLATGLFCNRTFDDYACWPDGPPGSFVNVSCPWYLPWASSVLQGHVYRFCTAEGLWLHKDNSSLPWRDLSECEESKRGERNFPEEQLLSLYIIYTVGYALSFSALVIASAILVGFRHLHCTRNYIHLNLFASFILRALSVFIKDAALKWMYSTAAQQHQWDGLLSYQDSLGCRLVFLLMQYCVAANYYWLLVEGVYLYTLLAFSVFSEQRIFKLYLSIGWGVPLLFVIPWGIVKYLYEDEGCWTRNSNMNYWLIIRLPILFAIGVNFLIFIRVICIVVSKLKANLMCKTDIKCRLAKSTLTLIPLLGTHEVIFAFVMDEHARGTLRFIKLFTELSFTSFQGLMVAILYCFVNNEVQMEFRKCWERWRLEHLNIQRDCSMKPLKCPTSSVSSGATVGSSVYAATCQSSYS
Put plainly: Agonistic activity on endogenous GLP-1 receptor (cAMP, murine insulinoma cell line). It is filed as cell-based. The following applies: intracellular cAMP, 15 minutes at 26° C.; read-out: EC50 GLP-1R (murine insulinoma cells). In a few lines:
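Murine insulinoma cells were exposed 15 min at 26° C in KRBH with 0.1% DMSO to compound or GLP-1 ([…]), then cAMP was measured by AlphaScreen against a standard curve, in quadruplicate. pEC50 came from curve fits; % CTL was normalised to the maximal GLP-1 cAMP response.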

The target of test [3] is T2, human glucagon-like peptide 1 receptor (GLP-1R) (Homo sapiens, UniProt P43220).
T2 construct: expressed in transfected cells
Put plainly: GLP-1 receptor efficacy assay (cAMP AlphaScreen, CHO cells). It is filed as cell-based. The following applies: Table 1A. An outline of the steps:
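Stably transfected CHO clones expressing human GLP-1R or glucagon receptor were treated with increasing peptide concentrations for 15 min at room temperature in KRBH containing 0.1 mM IBMX. After lysis, cAMP was quantified by AlphaScreen; EC50 and efficacy relative to GLP-1 or glucagon reference came from curve fitting.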

Molecules are shown by their SMILES. *1 amine or outer side, *2 acyl side, *3 side chain or, on linkers, in order; H or OH if unused. Where a SMILES comes first, the peptide text is derived from it. Side-chain parts run from the residue outwards. [ ]: non-standard residue; d: D form. The star is where a group is joined. γGlu = O=C(O)[C@H](CCC(=O)[*:2])N[*:1]; Palmitoyl = CCCCCCCCCCCCCCCC(=O)*; Aib = CC(C)(N)C(=O)O

T2 sequence (P43220 24-463): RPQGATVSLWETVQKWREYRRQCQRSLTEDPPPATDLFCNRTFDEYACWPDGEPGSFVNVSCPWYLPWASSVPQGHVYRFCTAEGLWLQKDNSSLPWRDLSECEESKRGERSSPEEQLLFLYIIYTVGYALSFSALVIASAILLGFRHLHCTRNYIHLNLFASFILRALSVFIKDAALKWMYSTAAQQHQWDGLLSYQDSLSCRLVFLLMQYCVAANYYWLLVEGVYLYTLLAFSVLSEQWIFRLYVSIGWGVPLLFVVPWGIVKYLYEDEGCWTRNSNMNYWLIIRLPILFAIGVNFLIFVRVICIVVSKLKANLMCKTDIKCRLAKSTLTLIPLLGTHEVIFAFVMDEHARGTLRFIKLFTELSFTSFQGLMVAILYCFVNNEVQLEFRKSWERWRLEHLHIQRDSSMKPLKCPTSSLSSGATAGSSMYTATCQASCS

`CCCCCCCCCCCCCCCC(=O)N[C@@H](CCC(=O)NCCCC[C@H](NC(=O)[C@H](CO)NC(=O)[C@H](CC(=O)O)NC(=O)[C@H](CC(C)C)NC(=O)[C@H](Cc1ccc(O)cc1)NC(=O)[C@H](CCCCN)NC(=O)[C@H](CO)NC(=O)[C@H](Cc1ccc(O)cc1)NC(=O)[C@H](CC(=O)O)NC(=O)[C@H](CO)NC(=O)[C@@H](NC(=O)[C@H](Cc1ccccc1)NC(=O)[C@@H](NC(=O)CNC(=O)[C@H](CCC(N)=O)NC(=O)C(C)(C)NC(=O)[C@@H](N)Cc1c[nH]cn1)[C@@H](C)O)[C@@H](C)O)C(=O)N[C@@H](C)C(=O)N[C@@H](C)C(=O)N[C@@H](CCC(=O)O)C(=O)N[C@@H](CC(=O)O)C(=O)N[C@@H](Cc1ccccc1)C(=O)N[C@H](C(=O)N[C@@H](CCC(=O)O)C(=O)N[C@@H](Cc1c[nH]c2ccccc12)C(=O)N[C@@H](CC(C)C)C(=O)N[C@@H](CCC(=O)O)C(=O)N[C@@H](CO)C(=O)N[C@@H](C)C(N)=O)C(C)C)C(=O)O` [Compound 16, H-H-Aib-QGTFTSDYSKYLDS-K(Hexadecanoyl-isoGlu)-AAEDFVEWLESA-NH2] (H-H[Aib]QGTFTSDYSKYLDSK([γGlu-Palmitoyl])AAEDFVEWLESA-NH2): in test [1], the “AUC (% Ctrl)” value amounted to 44 % Ctrl. Moreover, the EC50 (as a rule, the concentration giving half of the maximal effect) in test [2] was found to be 0.33 nM; in test [3] (CHO cells expressing human GLP-1-R, cAMP, read-out: EC50 hGLP-1R CHO-K1), 0.2 nM. The “Ratio GLP-1/Glucagon” value in test [3] (EC50 [GLP-1R]/EC50 [Glucagon-R]) was 0.13.
